From patent publication US20230190685A1, “FORMULATION” (UNION Therapeutics A/S, priority 2020, published 2023) come the findings set out here.

Common to all, as to assay type: cell-based
For one assay, the system named is SARS-CoV-2 D614G strain.
Assay [1] deals with European D614G strain of SARS-CoV-2 (BavPat1/2020).
Assay [2] deals with SARS-CoV-2 (D614G strain). As to conditions: read-out: EC50, replication of SARS-CoV-2.

A word on the EC50: it is the concentration that produces a half-maximal response. Regarding `O=C(Nc1ccc([N+](=O)[O-])cc1Cl)c1cc(Cl)ccc1O` [niclosamide ethanolamine], the EC50 stood at 60 nM in the assay on SARS-CoV-2 D614G strain; 960 nM in assay [1] (read-out: EC50, apical infectious titer (TCID50)); 100 nM in assay [2]. The “reduction of intracellular viral RNA level versus non-treated control” value in assay [1] amounted to 3 fold.
